Laboratory results published in patent publication US7718764B2, “Biologically active peptide [sequence] derivatives” (CMS Peptides Patent Holding Company Limited, priority 2004, dated 2010).
Marks after values point to notes of the source that are not given here.

Assays:
S180 sarcoma cells = test: Growth of KM mice-transplanted S180 sarcoma cells in vivo; parameters: unit not given here; details: for Sarcoma volume: V=(1/6)πABC, saline 1.20 ± 0.28
Protocol: S180 sarcoma cells were transplanted intraperitoneally into KM mice for 6-8 days and the ascites aseptically collected. The cell concentration was adjusted to 1×10^7 per ml with 10% FBS RPMI-1640, and 0.2 ml cell suspension was injected through the armpit into each KM mice for developing the sarcoma bearing mice model. […] Intraperitoneal injection of test substances started on the day immediately after tumor transplantation and continued once per day for 20 consecutive days.
On the day after the last test substance administration, the sarcomas were removed from the mice and weighed. The diameters of each sarcoma on the three planes (A, B, C) were measured by a vernier caliper. The volume of the sarcoma was calculated by the formula: V=(⅙)πABC.

mice NK cell = test: Mice NK cell activity in vivo (i.p. dosing 20 days, spleen effector cells vs YAC-1 target cells, MTT); parameters: species or system BALB/c mice; details: for Effect on mice NK cell activity in vivo (suppression) / Effect on mice NK cell activity in vivo (enhancement): at suitable dosage, vs saline control P<0.05
Protocol: Animals were randomized into two peptide groups (200 μg/kg/day and 50 μg/kg/day), Cyclosporine A group (10 mg/kg/day), and saline group (0.5 ml/day). Each group contained 10 mice, in which half were female and half were male. All test substances were dissolved in 0.5 ml saline and administered intraperitoneally once per day for 20 days. T-lymphocyte transformation and NK cell activity were examined on the day immediately following the last injection. YAC-1 target cells were brought to log phase and adjusted to a density of 1×10^5/ml. Mice spleen cells prepared in section 2.2.2 above were adjusted to a density of 4×10^6/ml and used as effector cells. The cell suspensions were inoculated onto 96 wells cell culture plates as follows: Effector cell wells: 100 μl spleen cell suspension+100 μl RPMI-1640 Assay wells: 100 μl spleen cell suspension+100 μl YAC-1 cell suspension Target cell wells: 100 μl YAC-1 cell suspension+100 μl RPMI-1640 Three assay wells and three effector cell wells were set up for each animal, and 12 target cell wells were set up per cell culture plate. The plates were incubated at 37° C., 5% CO2 for 4 hours, then MTT was added and the plates were read at OD 570 nm referenced at 630 nm with ELISA reader. NK cell activity (%)=1−[(assay wells OD−effector cell wells OD)/target cell wells OD]×100%

mice T-lymphocyte = test: Mice T-lymphocyte transformation in vivo (i.p. dosing 20 days, spleen cells + ConA, MTT, stimulation index); parameters: species or system BALB/c mice; details: for Effect on mice T-lymphocyte transformation in vivo: at suitable dosages, vs saline control P<0.05
Protocol: Animals were randomized into two peptide groups (200 μg/kg/day and 50 μg/kg/day), Cyclosporine A group (10 mg/kg/day), and saline group (0.5 ml/day). Each group contained 10 mice, in which half were female and half were male. All test substances were dissolved in 0.5 ml saline and administered intraperitoneally once per day for 20 days. T-lymphocyte transformation and NK cell activity were examined on the day immediately following the last injection. The day after the last test substance administration, the mice were sacrificed by cervical dislocation. The spleens were isolated aseptically and manually dispersed in 10% FBS RPMI-1640 solution using an injection needle. The dispersed cell suspension was further sieved through a 100 gauge 150 μm diameter stainless steel sieve and adjusted to 4×10^6/ml. The cell suspensions were inoculated onto a 96 wells cell culture plate, 100 μl/well with the following design. Assay wells: 100 μl cell suspension+100 μl ConA Control wells: 100 μl cell suspension+100 μl RPMI-1640 Four assay and four control wells were set up for each animal. The plates were incubated at 37° C., 5% CO2 for 68 hours. MTT was then added and the plates read at OD 570 nm referenced at 630 nm with ELISA reader. Stimulation Index SI (%)=(assay well OD/control well OD)×100%.

[1] = Table 12, 250 μg/kg/day, saline 1.87 ± 0.52
[2] = Table 12, 500 μg/kg/day, saline 1.87 ± 0.52
[3] = Table 8, 200 μg/kg/day i.p. 20 days, saline 76.0 ± 4.3
[4] = Table 9, 50 μg/kg/day i.p. 20 days, saline 55.3 ± 6.1
[5] = Table 11, 10 μg/kg/day i.p. 20 days, saline 5.07 ± 5.46
[6] = Table 11, 50 μg/kg/day i.p. 20 days, saline 5.07 ± 5.46
[7] = Table 7, 50 μg/kg/d i.p. 20 days, saline 2.96 ± 0.61

Compound	Sarcoma volume (S180 sarcoma cells; Table 12, 250 μg/kg/day)	Sarcoma weight (S180 sarcoma cells; [1])	Sarcoma volume (S180 sarcoma cells; Table 12, 500 μg/kg/day)	Sarcoma weight (S180 sarcoma cells; [2])	other results
COc1cccc2c1C(=O)c1c(O)c3c(c(O)c1C2=O)C[C@@](O)(C(=O)CO)C[C@@H]3O[C@H]1C[C@H](N)[C@H](O)[C@H](C)O1 [Adriamycin, reference compound]	–	–	–	–	Sarcoma weight (S180 sarcoma cells; Table 11, 2 mg/kg/day i.p. 20 days, saline 5.07 ± 5.46): 1.52 ± 1.75
O=P1(N(CCCl)CCCl)NCCCO1 (centres unmarked) [Cyclophosphamide, reference compound]	–	–	–	–	Sarcoma volume (S180 sarcoma cells; Table 12, 40 mg/kg/day): 0.76 ± 0.66; Sarcoma weight (S180 sarcoma cells; Table 12, 40 mg/kg/day, saline 1.87 ± 0.52): 1.07 ± 0.80
APEEHPTLLTEAPLNPK [CMS-010.02]	0.36 ± 0.40	0.68 ± 0.72	0.65 ± 0.67	0.97 ± 0.85	–
APLNPK [CMS-010.24]	0.36 ± 0.30	0.61 ± 0.39	0.62 ± 0.47	1.20 ± 0.79	NK cell activity (%) (mice NK cell; Table 8, 50 μg/kg/day i.p. 20 days, saline 76.0 ± 4.3): 56.0 ± 6.0 %; NK cell activity (%) (mice NK cell; [3]): 69.0 ± 7.4 %; Effect on mice NK cell activity in vivo (suppression) (mice NK cell): suppress; SI (mice T-lymphocyte; Table 4, 50 μg/kg/day i.p. 20 days, saline 3.63 ± 0.69): 2.40 ± 0.31; Effect on mice T-lymphocyte transformation in vivo (mice T-lymphocyte): suppress
EAPLNPK [CMS-010.23]	0.21 ± 0.15*^@	0.27 ± 0.18^@	–	–	–
EHPTLLTEAPLNPK [CMS-010.09]	0.37 ± 0.44	0.45 ± 0.38*^@	0.84 ± 0.84	0.85 ± 0.70	–
HPTLLTEAPLNPK [CMS-010.11]	0.63 ± 0.40	0.64 ± 0.31	0.95 ± 0.54	1.14 ± 0.74	NK cell activity (%) (mice NK cell; [4]): 63.5 ± 4.7 %; Effect on mice NK cell activity in vivo (enhancement) (mice NK cell): enhance
LLTEAPLNPK [CMS-010.17]	0.40 ± 0.24	0.65 ± 0.41	0.55 ± 0.34	0.91 ± 0.46	–
LNPK [CMS-010.28]	–	–	–	–	NK cell activity (%) (mice NK cell; [3]): 70.3 ± 6.7 %; Effect on mice NK cell activity in vivo (suppression) (mice NK cell): suppress; SI (mice T-lymphocyte; Table 4, 200 μg/kg/day i.p. 20 days, saline 3.63 ± 0.69): 2.70 ± 0.37; Effect on mice T-lymphocyte transformation in vivo (mice T-lymphocyte): suppress
LTEAPLNPK [CMS-010.19]	0.46 ± 0.58	0.41 ± 0.45*^@	0.40 ± 0.42	0.68 ± 0.68	–
NPK [CMS-010.31]	0.25 ± 0.20*^@	0.27 ± 0.19*^@	0.43 ± 0.50	0.78 ± 0.89	Sarcoma weight (S180 sarcoma cells; [5]): 1.05 ± 1.28; Sarcoma weight (S180 sarcoma cells; [6]): 1.20 ± 1.60
PEEHPTLLTEAPLNPK [CMS-010.04]	0.17 ± 0.12*^@	0.27 ± 0.19*^@	0.40 ± 0.28	0.62 ± 0.44	SI (mice T-lymphocyte; Table 6, 50 μg/kg/day i.p. 20 days, saline 2.24 ± 0.52): 1.56 ± 0.25; Effect on mice T-lymphocyte transformation in vivo (mice T-lymphocyte): suppress
PTLLTEAPLNPK [CMS-010.13]	0.91 ± 0.59	0.92 ± 0.56	0.38 ± 0.23	0.73 ± 0.43	NK cell activity (%) (mice NK cell; [4]): 70.9 ± 17.5 %; Effect on mice NK cell activity in vivo (enhancement) (mice NK cell): enhance
TEAPLNPK [CMS-010.21]	0.44 ± 0.22	0.51 ± 0.29	0.44 ± 0.21	0.44 ± 0.22*^@	–
TLLTEAPLNPK [CMS-010.15]	0.41 ± 0.37	0.45 ± 0.35*^@	0.63 ± 0.35	0.68 ± 0.36	–
VALLT [CMS-010.103]	–	–	–	–	Sarcoma weight (S180 sarcoma cells; [5]): 1.72 ± 1.53; Sarcoma weight (S180 sarcoma cells; [6]): 1.48 ± 1.44
VAPE [CMS-010.29]	1.02 ± 0.66	1.24 ± 0.72	0.40 ± 0.11	0.55 ± 0.41	–
VAPEE [CMS-010.27]	0.58 ± 0.58	0.78 ± 0.68	0.51 ± 0.33	1.05 ± 0.86	–
VAPEEH [CMS-010.25]	0.48 ± 0.37	0.65 ± 0.53	0.26 ± 0.21*^@	0.52 ± 0.38	SI (mice T-lymphocyte; Table 5, 200 μg/kg/day i.p. 20 days, saline 3.15 ± 0.83): 2.43 ± 0.69; Effect on mice T-lymphocyte transformation in vivo (mice T-lymphocyte): suppress
VAPEEHP [CMS-010.22]	0.24 ± 0.08*^@	0.28 ± 0.12*^@	0.73 ± 0.87	0.85 ± 0.73	–
VAPEEHPT [CMS-010.20]	0.88 ± 0.77	1.00 ± 0.76	0.54 ± 0.51	0.59 ± 0.46	–
VAPEEHPTL [CMS-010.18]	0.27 ± 0.20*^@	0.44 ± 0.31*^@	0.58 ± 0.42	0.59 ± 0.48	–
VAPEEHPTLL [CMS-010.16]	0.61 ± 0.44	0.63 ± 0.47	0.92 ± 0.36	0.99 ± 0.42	–
VAPEEHPTLLT [CMS-010.14]	0.29 ± 0.21	0.44 ± 0.30*^@	0.56 ± 0.53	0.67 ± 0.70	NK cell activity (%) (mice NK cell; [4]): 75.3 ± 9.0 %; NK cell activity (%) (mice NK cell; Table 9, 200 μg/kg/day i.p. 20 days, saline 55.3 ± 6.1): 43.1 ± 13.7 %; Effect on mice NK cell activity in vivo (enhancement) (mice NK cell): enhance; SI (mice T-lymphocyte; [7]): 2.12 ± 0.51; Effect on mice T-lymphocyte transformation in vivo (mice T-lymphocyte): suppress
VAPEEHPTLLTE [CMS-010.12]	–	–	–	–	SI (mice T-lymphocyte; [7]): 2.12 ± 0.42; Effect on mice T-lymphocyte transformation in vivo (mice T-lymphocyte): suppress
VAPEEHPTLLTEAP [CMS-010.08]	0.20 ± 0.14*^@	0.38 ± 0.27*^@	1.01 ± 0.63	1.05 ± 0.64	–
VAPEEHPTLLTEAPL [CMS-010.07]	0.24 ± 0.13*^@	0.32 ± 0.14*^@	0.37 ± 0.20	0.52 ± 0.25	–
VAPEEHPTLLTEAPLN [CMS-010.05]	0.23 ± 0.19*^@	0.56 ± 0.33	0.34 ± 0.22	0.47 ± 0.29*^@	–
VAPEEHPTLLTEAPLNP [CMS-010.03]	0.31 ± 0.22	0.68 ± 0.46	0.27 ± 0.33*^@	0.33 ± 0.35*^@	–
